What all share (assay type): biochemical
The target of assay [1] is T1, zinc-induced Aβ42 aggregates (Homo sapiens, UniProt P05067).
T1 construct: 15 μM Aβ42 peptide in TrisHCl—NaCl buffer
Description: Bis-ANS fluorescence assay of disaggregation of zinc-induced Aβ42 aggregates. As to conditions: for EC50: Aβ42 15 μM, bis-ANS 15 μM, Tris-buffered saline, with 15 μM Zn2+. How it is done: Bis-ANS was used as a fluorescent marker for Aβ42 aggregation and disaggregation so as to determine the efficacy, EC50, of each test compound in the presence or absence of zinc(II). Baseline fluorescence was established by monitoring the fluorescence of 15 μM bis-ANS in a TrisHCl-NaCl buffer (TrisHCl-NaCl buffer: 0.50 mM TrisHCl, 1.50 mM NaCl, pH 7.4) that contains 15 μM Aβ42. After 5 minutes, Zn(II) (as zinc(II) sulfate, 15 μM final concentration) was added to the Aβ42 solution, and the fluorescence intensity monitored for 24-40 minutes. Fluorescence increases following the addition of Zn(II) during the aggregation period. After the aggregation period, varying concentrations (60, 15, 3.75, 0.938, 0.234, or 0 μM final concentration) of a test compound were added, and the fluorescence intensity again monitored until it plateaus, typically 20-24 min. […] Fluorescence intensities were determined at 390 nm excitation wavelength/490 nm emission wavelength with a 475 nm cutoff. […] The responses I0-If, were calculated as the difference in the final fluorescent intensity If, c at the end of the assay for each concentration as compared to the final intensity I0 determined for the sample with no added derivative. The responses were normalized to the maximum response […] which is the final fluorescent intensity of the sample containing 60 μM test compound, Normalized response=(I0-If)/(I0-[…]). The fluorescent intensities were then fit to a 4-parameter sigmoidal logistic function to determine EC50. In the presence of soluble Aβ42, zinc(II) induces aggregation within milliseconds. This aggregation is detected by an increase in bis-ANS fluorescence. Disaggregation of zinc-dependent aggregates can be detected by a decrease in the fluorescence of bis-ANS in the assay. FIG. 1 depicts the zinc(II) induced Aβ42 aggregation and the disaggregation by BC-147 of the zinc-induced aggregates, measured by bis-ANS fluorescence assay.

For assay [2], the target named is T2, zinc-independent Aβ42 aggregates (Homo sapiens, UniProt P05067).
T2 construct: 15 μM Aβ42 peptide in TrisHCl—NaCl buffer
The experiment in a line: Bis-ANS fluorescence assay of disaggregation of zinc-independent Aβ42 aggregates. The following applies: for EC50: Aβ42 15 μM, bis-ANS 15 μM, Tris-buffered saline, without Zn2+; for Change in bis-ANS fluorescence after addition of compound to zinc-independent Aβ42 aggregates: 15 μM Aβ42, no Zn2+, compound at 60.0 to 0.234 μM (FIG. 2). How it is done:
Bis-ANS was used as a fluorescent marker for Aβ42 aggregation and disaggregation so as to determine the efficacy, EC50, of each test compound in the presence or absence of zinc(II). Baseline fluorescence was established by monitoring the fluorescence of 15 μM bis-ANS in a TrisHCl-NaCl buffer (TrisHCl-NaCl buffer: 0.50 mM TrisHCl, 1.50 mM NaCl, pH 7.4) that contains 15 μM Aβ42. After 5 minutes, Zn(II) (as zinc(II) sulfate, 15 μM final concentration) was added to the Aβ42 solution, and the fluorescence intensity monitored for 24-40 minutes. Fluorescence increases following the addition of Zn(II) during the aggregation period. After the aggregation period, varying concentrations (60, 15, 3.75, 0.938, 0.234, or 0 μM final concentration) of a test compound were added, and the fluorescence intensity again monitored until it plateaus, typically 20-24 min. […] Fluorescence intensities were determined at 390 nm excitation wavelength/490 nm emission wavelength with a 475 nm cutoff. […] The responses I0-If, were calculated as the difference in the final fluorescent intensity If, c at the end of the assay for each concentration as compared to the final intensity I0 determined for the sample with no added derivative. The responses were normalized to the maximum response […] which is the final fluorescent intensity of the sample containing 60 μM test compound, Normalized response=(I0-If)/(I0-[…]). The fluorescent intensities were then fit to a 4-parameter sigmoidal logistic function to determine EC50. A representative example of disaggregation of spontaneously formed, zinc-independent Aβ42 aggregates by a test compound, BC-147, is given in FIG. 2. In the absence of zinc(II), soluble Aβ42 undergoes zinc-independent aggregation more slowly than aggregation in the presence of zinc(II). This spontaneous, zinc-independent aggregation of Aβ42 is detected by an increase in bis-ANS fluorescence. […] FIG. 2 depicts the disaggregation by BC-147 of the spontaneously formed, zinc-independent Aβ42 aggregates.

The next assay addresses T3, amylin aggregates (Homo sapiens, UniProt P10997).
T3 construct: Amylin (15 μM) in TrisHCl—NaCl buffer was allowed to aggregate for 24 hr
T3 sequence (P10997 34-70 limits assumed): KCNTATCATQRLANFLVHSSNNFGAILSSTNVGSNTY
The experiment in a line: Bis-ANS fluorescence assay of disaggregation of amylin aggregates. The following applies: 15 μM amylin; for EC50: bis-ANS 15 μM, Tris-buffered saline, compound added after 24 hr aggregation. How it is done: Amylin (15 μM) in TrisHCl—NaCl buffer was allowed to aggregate for 24 hr, while monitoring the fluorescence of bis-ANS (15 μM) as a marker of amylin aggregation. Typically, the fluorescence increases during the aggregation period. After the aggregation period, varying concentrations (60, 15, 3.75, 0.938, 0.234, or 0 μM final concentration) of a test compound were then added to the sample, and the fluorescence intensity monitored until it plateaus, typically an additional 20-24 hr. Controls were simultaneously run in which the test compound was added to a sample that contained Bis-ANS but no amylin so as to determine any interfering intrinsic fluorescence of the test compound itself (see Table 1).
A series of assays was also carried out so as to determine the EC50 for EGCG, by addition of 60, 15, 3.75, 0.938, 0.234, or 0 μM EGCG after 24 hours, similarly to the methods used to assay the test compounds.

This is an account of results in patent publication US10590100B2, “Benzofuran derivatives for the treatment of CNS and other disorders” (WARNER BABCOCK INSTITUTE FOR GREEN CHEMISTRY, priority 2015, dated 2020).

As a reminder, the EC50 is the concentration giving half of the maximal effect. Low values mean greater potency, high ones weaker potency.

T1 sequence (P05067 672-713 limits assumed): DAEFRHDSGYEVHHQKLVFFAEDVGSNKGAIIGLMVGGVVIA
T2 sequence (P05067 672-713 limits assumed): as above

As for `N#CC(=Cc1cc2ccc(N(c3ccccc3)c3ccccc3)cc2o1)C(=O)O` [BC-146, 2-cyano-3-(6-(diphenylamino)benzofuran-2-yl)acrylic acid], the EC50 in assay [1] came to 540 nM; in assay [2], 4900 nM; at amylin aggregates, 520 nM.
Turning to `N#CC(=Cc1ccc(-c2cc3ccc(N(c4ccccc4)c4ccccc4)cc3o2)cc1)C(=O)O` [BC-147, 2-cyano-3-(4-(6-(diphenylamino)benzofuran-2-yl)phenyl)acrylic acid], the “Change in bis-ANS fluorescence after addition of compound to zinc-induced Aβ42 aggregates” value in assay [1] (15 μM Aβ42, 15 μM Zn2+, compound at 60.0, 15.0, 3.75, 0.938 or 0.234 μM (FIG. 1)) was “decrease in bis-ANS fluorescence”. For the same molecule, the EC50 stood at 3760 nM in assay [1], 11500 nM in assay [2] and 190 nM on amylin aggregates. Also, the “Change in bis-ANS fluorescence after addition of compound to zinc-independent Aβ42 aggregates” value in assay [2] was “decrease in bis-ANS fluorescence”.
In the case of `N#CC(=Cc1ccc2cc(-c3ccc(N(c4ccccc4)c4ccccc4)cc3)oc2c1)C(=O)O` [BC-149, 2-cyano-3-(2-(4-(diphenylamino)phenyl)benzofuran-6-yl)acrylic acid], the results for the EC50 (in assay [1]; in assay [2]; on amylin aggregates) were 660 nM, 500 nM and 150 nM, respectively.
The like results for `N#CC(=Cc1ccc2oc(-c3ccc(N(c4ccccc4)c4ccccc4)cc3)cc2c1)C(=O)O` [BC-151, 2-cyano-3-(2-(4-(diphenylamino)phenyl)benzofuran-5-yl)acrylic acid] were, in that order, 4930 nM, 610 nM and 460 nM.
For the molecule `N#CC(=Cc1ccc2cc(-c3ccc(N(c4ccccc4)c4ccccc4)cc3)oc2c1)C(N)=O` [BC-152, 2-cyano-3-(2-(4-(diphenylamino)phenyl)benzofuran-6-yl)acrylamide], the values for the EC50 (in assay [1]; in assay [2]; at amylin aggregates) were 2700 nM, 1110 nM and 800 nM, respectively.
At amylin aggregates, `N#CC(C#N)=Cc1ccc2cc(-c3ccc(N(c4ccccc4)c4ccccc4)cc3)oc2c1` [BC-154, 2-((2-(4-(diphenylamino)phenyl)benzofuran-6-yl)methylene)malononitrile] showed an EC50 of 2090 nM.
Consider `NC(=O)C(=Cc1ccc2cc(-c3ccc(N(c4ccccc4)c4ccccc4)cc3)oc2c1)C(N)=O` [BC-155, 2-((2-(4-(diphenylamino)phenyl)benzofuran-6-yl)methylene)malonamide], for which the EC50 was found to be 1090 nM in assay [1], 460 nM in assay [2] and 180 nM on amylin aggregates.
As for `COc1ccc(N(c2ccc(OC)cc2)c2ccc(-c3cc4ccc(C=C(C#N)C(=O)O)cc4o3)cc2)cc1` [BC-156, 3-(2-(4-(bis(4-methoxyphenyl)amino)phenyl)benzofuran-6-yl)-2-cyanoacrylic acid], the EC50 in assay [1] amounted to 1710 nM; in assay [2], 3010 nM; at amylin aggregates, 310 nM.
`CC(C)(C)c1ccc(N(c2ccc(-c3cc4ccc(C=C(C#N)C(=O)O)cc4o3)cc2)c2ccc(C(C)(C)C)cc2)cc1` [BC-158, 3-(2-(4-(bis(4-(tert-butyl)phenyl)amino)phenyl)benzofuran-6-yl)-2-cyanoacrylic acid] showed a concentration for a half-maximal effect (EC50) on amylin aggregates of 1730 nM. Also, the “Change in bis-ANS fluorescence after addition of compound to amylin aggregates” value on amylin aggregates (compound at 60.0, 15.0, 3.75, 0.938 or 0.234 μM added at about 1440 min (FIG. 5)) was “decrease in bis-ANS fluorescence”.
Regarding `N#CC(=Cc1ccc2cc(-c3ccc(N(c4cccnc4)c4cccnc4)cc3)oc2c1)C(=O)O` [BC-159, 2-cyano-3-(2-(4-(di(pyridin-3-yl)amino)phenyl)benzofuran-6-yl)acrylic acid], the EC50 in assay [1] was 2220 nM; in assay [2], 5590 nM; on amylin aggregates, 1930 nM.
The like results for `COC(=O)C(C#N)=Cc1ccc2cc(-c3ccc(N(c4ccccc4)c4ccccc4)cc3)oc2c1` [BC-161, methyl 2-cyano-3-(2-(4-(diphenylamino)phenyl)benzofuran-6-yl)acrylate] were, in that order, 4120 nM, 3220 nM and 2540 nM.
For `N#CC(=Cc1ccc2cc(-c3ccc(N(c4ccccc4)c4ccccc4)cc3)oc2c1)C(=O)NCc1ccccn1` [BC-163, 2-cyano-3-(2-(4-(diphenylamino)phenyl)benzofuran-6-yl)-N-(pyridin-2-ylmethyl)acrylamide] the same measures were 2230 nM, 1760 nM and 1830 nM.
On amylin aggregates, `N#CC(=Cc1ccc2cc(-c3ccc(N4CCCCC4)cc3)oc2c1)C(=O)O` [BC-166, 2-cyano-3-(2-(4-(piperidin-1-yl)phenyl)benzofuran-6-yl)acrylic acid] registered an EC50 of 610 nM.
The same measure, in the same setting: for `N#CC(=Cc1ccc2cc(-c3ccc(N4CCOCC4)cc3)oc2c1)C(=O)O` [BC-169, 2-cyano-3-(2-(4-morpholinophenyl)benzofuran-6-yl)acrylic acid] the value was 840 nM; for `CCN(CC)c1ccc(-c2cc3ccc(C=C(C#N)C(=O)O)cc3o2)cc1` [BC-173, 2-cyano-3-(2-(4-(diethylamino)phenyl)benzofuran-6-yl)acrylic acid], 210 nM.
On the same count and under the same terms, in the case of `CN(c1ccccc1)c1ccc(-c2cc3ccc(C=C(C#N)C(=O)O)cc3o2)cc1` [BC-175, 2-cyano-3-(2-(4-(methyl(phenyl)amino)phenyl)benzofuran-6-yl)acrylic acid] it was 140 nM.
For `O=C(O)CN(CCN(CC(=O)O)CC(=O)O)CC(=O)O` [EDTA, reference compound], it took 46100 nM to reach a half-maximal effect in assay [1] (EC50). Moreover, the “Change in bis-ANS fluorescence after addition of compound to zinc-independent Aβ42 aggregates” value in assay [2] is “no effect”.
On to `O=C(O[C@@H]1Cc2c(O)cc(O)cc2O[C@@H]1c1cc(O)c(O)c(O)c1)c1cc(O)c(O)c(O)c1` [EGCG, Epigallocatechin gallate, reference compound], for which a half-maximal response on amylin aggregates (EC50) required 860 nM.
